Test results: PubChem BioAssay AID256 (DTP/NCI, 2004)
Where “and” joins values, the source holds several entries; their conditions need not be identical. Equal entries are not always repeated. Toxic doses and inconclusive results are not listed.

Tested on: CD2F1 mice, L1210 leukemia ip, survival T/C
Assay: NCI In Vivo Anticancer Drug Screen. Data for tumor model L1210 Leukemia (intraperitoneal) in CD2F1 (CDF1) mice
Conditions: higher = longer survival
In short: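 Vehicle-treated tumor-bearing mice served as controls (C) for compound-treated mice (T). Reported figure is T divided by C.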

[1] = endpoint: mean survival time, dose: 50.0 mg/kg/injection, schedule: Q01DX009 (ip), vehicle: saline with Tween-80
[2] = endpoint: mean survival time, dose: 100.0 mg/kg/injection, schedule: Q01DX009 (ip), vehicle: saline with Tween-80
[3] = endpoint: mean survival time, dose: 100.0 mg/kg/injection, schedule: Q04DX003 (ip), vehicle: saline with Tween-80
[4] = endpoint: mean survival time, dose: 200.0 mg/kg/injection, schedule: Q04DX003 (ip), vehicle: saline with Tween-80
[5] = endpoint: mean survival time, dose: 100.0 mg/kg/injection, schedule: Q01DX001 (ip), vehicle: saline with Tween-80
[6] = endpoint: mean survival time, dose: 200.0 mg/kg/injection, schedule: Q01DX001 (ip), vehicle: saline with Tween-80
[7] = endpoint: mean survival time, dose: 200.0 mg/kg/injection, schedule: Q01DX009 (ip), vehicle: saline with Tween-80
[8] = endpoint: mean survival time, dose: 400.0 mg/kg/injection, schedule: Q01DX001 (ip), vehicle: saline with Tween-80
[9] = endpoint: mean survival time, dose: 400.0 mg/kg/injection, schedule: Q01DX009 (ip), vehicle: saline with Tween-80
[10] = endpoint: mean survival time, dose: 50.0 mg/kg/injection, schedule: Q01DX009 (ip), vehicle: saline
[11] = endpoint: mean survival time, dose: 100.0 mg/kg/injection, schedule: Q01DX009 (ip), vehicle: saline
[12] = endpoint: mean survival time, dose: 400.0 mg/kg/injection, schedule: Q04DX003 (ip), vehicle: saline with Tween-80

With `COc1ccc(NC(=O)Oc2ccc(C3CCCCC3)cc2)cc1` the T/C (endpoint: mean survival time, dose: 25.0 mg/kg/injection, schedule: Q01DX009 (ip), vehicle: saline with Tween-80) was 97 % of control, the T/C (endpoint: mean survival time, dose: 25.0 mg/kg/injection, schedule: Q04DX002 (ip), vehicle: saline with Tween-80) was 104 % of control and the T/C [1] was 93 % of control. The T/C (endpoint: mean survival time, dose: 50.0 mg/kg/injection, schedule: Q04DX002 (ip), vehicle: saline with Tween-80) was 104 % of control, the T/C [2] was 89 % of control and the T/C (endpoint: mean survival time, dose: 100.0 mg/kg/injection, schedule: Q04DX002 (ip), vehicle: saline with Tween-80) was 101 % of control. For the same compound, the T/C (endpoint: mean survival time, dose: 200.0 mg/kg/injection, schedule: Q04DX002 (ip), vehicle: saline with Tween-80) was 108 % of control.
With `CCc1cc(CC)c(CC)c(Br)c1CC` the T/C [1] was 98 % of control, the T/C [2] was 108 % of control and the T/C [3] was 98 % of control. For the same compound, the T/C [4] was 101 % of control.
For `O=C1N(Cc2ccccc2)CCS1(=O)=O`, the T/C (endpoint: mean survival time, dose: 75.0 mg/kg/injection, schedule: Q01DX001 (ip), vehicle: other) was 96 % of control and the T/C (endpoint: mean survival time, dose: 150.0 mg/kg/injection, schedule: Q01DX001 (ip), vehicle: other) was 106 % of control.
For `N#CC1CNC(N)NC1N` (stereo not given), the T/C (endpoint: mean survival time, dose: 50.0 mg/kg/injection, schedule: Q01DX009 (ip), vehicle: Klucel (hydroxypropylcellulose) (HPC)) was 98 % of control, the T/C (endpoint: mean survival time, dose: 100.0 mg/kg/injection, schedule: Q01DX009 (ip), vehicle: Klucel (hydroxypropylcellulose) (HPC)) was 91 % of control and the T/C (endpoint: mean survival time, dose: 200.0 mg/kg/injection, schedule: Q01DX009 (ip), vehicle: Klucel (hydroxypropylcellulose) (HPC)) was 98 % of control.
`CCCCCCC(=O)/C=C\C(C)=C\c1ccccc1` was tested, and the T/C [5] was 94 % of control, the T/C [2] was 98 % of control and the T/C [6] was 100 % of control. For the same compound, the T/C [7] was 98 % of control, the T/C [8] was 94 % of control and the T/C [9] was 98 % of control.
For `O=C(O)CCOc1ccc([N+](=O)[O-])cc1`, the T/C [2] was 96 % of control, the T/C [7] was 98 % of control and the T/C [9] was 94 % of control.
`CC(C)(O)C(Cl)(Cl)Cl` was tested, and the T/C [10] was 97 % of control, the T/C [11] was 95 % of control and the T/C (endpoint: mean survival time, dose: 200.0 mg/kg/injection, schedule: Q01DX009 (ip), vehicle: saline) was 107 % of control.
For `O=C(CCCC(Br)c1ccccc1)c1ccccc1` (stereo not given), the T/C [5] was 90 % of control and the T/C [8] was 95 % of control.
In the case of `[C-]#[N+]CCS(=O)(=O)CC[N+]#[C-]`, the T/C [2] is reported as 94 % of control, the T/C [3] is reported as 102 % of control and the T/C [7] is reported as 94 % of control. For the same compound, the T/C [4] was 102 % of control, the T/C [9] was 100 % of control and the T/C [12] was 89 % of control.
In the case of `BrC/C(=N\N1CCCCCC1)c1ccc(Br)cc1`, the T/C (endpoint: mean survival time, dose: 100.0 mg/kg/injection, schedule: Q01DX001 (ip), vehicle: saline) is reported as 94 % of control, the T/C (endpoint: mean survival time, dose: 200.0 mg/kg/injection, schedule: Q01DX001 (ip), vehicle: saline) is reported as 92 % of control and the T/C (endpoint: mean survival time, dose: 400.0 mg/kg/injection, schedule: Q01DX001 (ip), vehicle: saline) is reported as 92 % of control.
For `CCN(CC)CCNC(=O)C(O)(c1ccccc1)c1ccccc1`, the T/C [10] was 98 % of control and the T/C [11] was 103 % of control.
With `c1ccc(Nc2ccc(N=Nc3nc4ccccc4s3)cc2)cc1` the T/C [5] was 93 % of control, the T/C [6] was 97 % of control and the T/C [8] was 97 % of control.
With `CCCCCCC(O)/C=C/c1ccc(Cl)cc1` (stereo not given) the T/C [3] was 110 % of control, the T/C [4] was 102 % of control and the T/C [12] was 111 % of control.
For `O=S(=O)(O)c1ccc(N=Nc2ccc(O)cc2)cc1`, the T/C (endpoint: mean survival time, dose: 25.0 mg/kg/injection, schedule: Q04DX003 (ip), vehicle: saline with Tween-80) was 97 % of control, the T/C (endpoint: mean survival time, dose: 50.0 mg/kg/injection, schedule: Q04DX003 (ip), vehicle: saline with Tween-80) was 107 % of control and the T/C [3] was 100 % of control.
For `NC(=O)c1ncn2c(=O)n(CCCl)nnc12`, the T/C (endpoint: median survival time, dose: 3.0 mg/kg/injection, schedule: Q01DX009 (ip), vehicle: saline) was 174 % of control, the T/C (endpoint: median survival time, dose: 3.12 mg/kg/injection, schedule: Q01DX009 (ip), vehicle: saline) was 212 % of control and the T/C (endpoint: median survival time, dose: 6.0 mg/kg/injection, schedule: Q01DX009 (ip), vehicle: saline) was 223 % of control. The T/C (endpoint: median survival time, dose: 6.25 mg/kg/injection, schedule: Q01DX009 (ip), vehicle: saline) was 184 % of control and 214 % of control and 365 % of control, the T/C (endpoint: median survival time, dose: 6.25 mg/kg/injection, schedule: Q01DX009 (ip), vehicle: suspension in saline) was 182 % of control and the T/C (endpoint: median survival time, dose: 12.0 mg/kg/injection, schedule: Q01DX009 (ip), vehicle: saline) was 352 % of control. The T/C (endpoint: median survival time, dose: 12.5 mg/kg/injection, schedule: Q01DX009 (ip), vehicle: saline) was 222 % of control and 365 % of control (2×), the T/C (endpoint: median survival time, dose: 12.5 mg/kg/injection, schedule: Q01DX009 (ip), vehicle: suspension in saline) was 322 % of control and the T/C (endpoint: median survival time, dose: 25.0 mg/kg/injection, schedule: Q01DX009 (ip), vehicle: suspension in saline) was 322 % of control. The T/C (endpoint: median survival time, dose: 50.0 mg/kg/injection, schedule: Q01DX009 (ip), vehicle: suspension in saline) was 100 % of control.
With `O=C1NC(CN2CCOCC2)C(=O)NC1CN1CCOCC1` (stereo not given) the T/C (endpoint: mean survival time, dose: 3.13 mg/kg/injection, schedule: Q01DX009 (ip), vehicle: water) was 105 % of control, the T/C (endpoint: mean survival time, dose: 6.25 mg/kg/injection, schedule: Q01DX009 (ip), vehicle: water) was 105 % of control and the T/C (endpoint: mean survival time, dose: 12.5 mg/kg/injection, schedule: Q01DX009 (ip), vehicle: water) was 103 % of control. The T/C (endpoint: mean survival time, dose: 25.0 mg/kg/injection, schedule: Q01DX009 (ip), vehicle: water) was 100 % of control, the T/C (endpoint: mean survival time, dose: 50.0 mg/kg/injection, schedule: Q01DX009 (ip), vehicle: water) was 101 % of control and the T/C (endpoint: mean survival time, dose: 100.0 mg/kg/injection, schedule: Q01DX009 (ip), vehicle: water) was 106 % of control.
`COc1cc([C@@H]2c3cc4c(cc3[C@H](OC(C)=O)[C@H]3COC(=O)[C@@H]23)OCO4)cc(OC)c1OC` was tested, and the T/C (endpoint: mean survival time, dose: 100.0 mg/kg/injection, schedule: Q01DX009 (ip), vehicle: saline sonified) was 88 % of control.
With `CN(C)/N=N/c1[nH]ncc1C(N)=O` the T/C (endpoint: mean survival time, dose: 150.0 mg/kg/injection, schedule: Q01DX001 (oral), vehicle: saline) was 121 % of control and the T/C (endpoint: mean survival time, dose: 1200.0 mg/kg/injection, schedule: Q01DX001 (oral), vehicle: saline) was 158 % of control.
With `O=C=NC(c1ccccc1)(c1ccccc1)c1ccccc1` the T/C [3] was 95 % of control and 99 % of control, the T/C [4] was 103 % of control and 104 % of control and the T/C [12] was 97 % of control.
With `CSc1ccc(NC=O)cc1` the T/C (endpoint: mean survival time, dose: 75.0 mg/kg/injection, schedule: Q01DX001 (ip), vehicle: saline) was 98 % of control, the T/C (endpoint: mean survival time, dose: 150.0 mg/kg/injection, schedule: Q01DX001 (ip), vehicle: saline) was 100 % of control and the T/C (endpoint: mean survival time, dose: 300.0 mg/kg/injection, schedule: Q01DX001 (ip), vehicle: saline) was 100 % of control.
With `CC(C)NC(=O)C1CC2c3cccc4[nH]c(Br)c(c34)CC2N(C)C1` (stereo not given) the T/C (endpoint: mean survival time, dose: 5.0 mg/kg/injection, schedule: Q01DX009 (ip), vehicle: saline with Tween-80) was 90 % of control, the T/C (endpoint: mean survival time, dose: 10.0 mg/kg/injection, schedule: Q01DX009 (ip), vehicle: saline with Tween-80) was 104 % of control and the T/C (endpoint: mean survival time, dose: 20.0 mg/kg/injection, schedule: Q01DX009 (ip), vehicle: saline with Tween-80) was 94 % of control.
With `c1nc(N2CC2)c2cnn(C3CCCCO3)c2n1` (stereo not given) the T/C (endpoint: mean survival time, dose: 25.0 mg/kg/injection, schedule: Q04DX003 (ip), vehicle: saline) was 96 % of control, the T/C (endpoint: mean survival time, dose: 50.0 mg/kg/injection, schedule: Q04DX003 (ip), vehicle: saline) was 103 % of control and the T/C (endpoint: mean survival time, dose: 100.0 mg/kg/injection, schedule: Q04DX003 (ip), vehicle: saline) was 100 % of control.
`O=C1C=C2C(=CCOC2O)O1` (stereo not given) was tested, and the T/C (endpoint: mean survival time, dose: 0.25 mg/kg/injection, schedule: Q01DX009 (ip), vehicle: Klucel (hydroxypropylcellulose) (HPC)) was 108 % of control, the T/C (endpoint: mean survival time, dose: 0.5 mg/kg/injection, schedule: Q01DX009 (ip), vehicle: Klucel (hydroxypropylcellulose) (HPC)) was 89 % of control and 106 % of control and the T/C (endpoint: mean survival time, dose: 0.75 mg/kg/injection, schedule: Q01DX009 (ip), vehicle: Klucel (hydroxypropylcellulose) (HPC)) was 103 % of control. For the same compound, the T/C (endpoint: mean survival time, dose: 1.0 mg/kg/injection, schedule: Q01DX009 (ip), vehicle: Klucel (hydroxypropylcellulose) (HPC)) was 101 % of control and 104 % of control, the T/C (endpoint: mean survival time, dose: 1.5 mg/kg/injection, schedule: Q01DX009 (ip), vehicle: Klucel (hydroxypropylcellulose) (HPC)) was 104 % of control and the T/C (endpoint: mean survival time, dose: 2.0 mg/kg/injection, schedule: Q01DX009 (ip), vehicle: Klucel (hydroxypropylcellulose) (HPC)) was 102 % of control and 103 % of control. The T/C (endpoint: mean survival time, dose: 3.0 mg/kg/injection, schedule: Q01DX009 (ip), vehicle: Klucel (hydroxypropylcellulose) (HPC)) was 104 % of control, the T/C (endpoint: mean survival time, dose: 4.0 mg/kg/injection, schedule: Q01DX009 (ip), vehicle: Klucel (hydroxypropylcellulose) (HPC)) was 95 % of control and 106 % of control and the T/C (endpoint: mean survival time, dose: 6.0 mg/kg/injection, schedule: Q01DX009 (ip), vehicle: Klucel (hydroxypropylcellulose) (HPC)) was 96 % of control.
With `O=S(=O)(NC(=S)Nc1ccc(Cl)cc1)c1ccccc1` the T/C [2] was 93 % of control and the T/C [7] was 109 % of control.
For `CCCCCCCCCCC/C=C\C(C#N)C(=O)OCC` (stereo not given), the T/C [3] was 103 % of control, the T/C [4] was 108 % of control and the T/C [12] was 87 % of control.
